24 molecules from patent US10722514B2 (FLX Bio, Inc., priority 2017, dated 2020) can be followed below.

The target of this experiment is T1, recombinant full-length USP7 (Homo sapiens, UniProt Q93009).
T1 construct: A 25 μl reaction volume containing recombinant full-length USP7 (62 pM)
Put plainly: USP7-mediated ubiquitin-rhodamine cleavage assay. In kind it is biochemical. The note with it: recombinant full-length USP7 62 pM; ubiquitin-rhodamine 100 nM; 30-minute pre-incubation, 1 hour reaction at room temperature; read-out: Potency (USP7 IC50). The procedure, abridged:
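Full-length recombinant USP7 (62 pM) in 20 mM HEPES pH 7.3, 150 mM NaCl, 1 mM TCEP, 125 μg/ml BSA, 1% DMSO, preincubated with compound 30 min at RT. Ubiquitin-rhodamine (100 nM final) cleaved 1 h at RT in the dark, stopped with acetic acid; rhodamine fluorescence read, IC50 by 4-parameter nonlinear fit.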

T1 sequence (Q93009 whole entry): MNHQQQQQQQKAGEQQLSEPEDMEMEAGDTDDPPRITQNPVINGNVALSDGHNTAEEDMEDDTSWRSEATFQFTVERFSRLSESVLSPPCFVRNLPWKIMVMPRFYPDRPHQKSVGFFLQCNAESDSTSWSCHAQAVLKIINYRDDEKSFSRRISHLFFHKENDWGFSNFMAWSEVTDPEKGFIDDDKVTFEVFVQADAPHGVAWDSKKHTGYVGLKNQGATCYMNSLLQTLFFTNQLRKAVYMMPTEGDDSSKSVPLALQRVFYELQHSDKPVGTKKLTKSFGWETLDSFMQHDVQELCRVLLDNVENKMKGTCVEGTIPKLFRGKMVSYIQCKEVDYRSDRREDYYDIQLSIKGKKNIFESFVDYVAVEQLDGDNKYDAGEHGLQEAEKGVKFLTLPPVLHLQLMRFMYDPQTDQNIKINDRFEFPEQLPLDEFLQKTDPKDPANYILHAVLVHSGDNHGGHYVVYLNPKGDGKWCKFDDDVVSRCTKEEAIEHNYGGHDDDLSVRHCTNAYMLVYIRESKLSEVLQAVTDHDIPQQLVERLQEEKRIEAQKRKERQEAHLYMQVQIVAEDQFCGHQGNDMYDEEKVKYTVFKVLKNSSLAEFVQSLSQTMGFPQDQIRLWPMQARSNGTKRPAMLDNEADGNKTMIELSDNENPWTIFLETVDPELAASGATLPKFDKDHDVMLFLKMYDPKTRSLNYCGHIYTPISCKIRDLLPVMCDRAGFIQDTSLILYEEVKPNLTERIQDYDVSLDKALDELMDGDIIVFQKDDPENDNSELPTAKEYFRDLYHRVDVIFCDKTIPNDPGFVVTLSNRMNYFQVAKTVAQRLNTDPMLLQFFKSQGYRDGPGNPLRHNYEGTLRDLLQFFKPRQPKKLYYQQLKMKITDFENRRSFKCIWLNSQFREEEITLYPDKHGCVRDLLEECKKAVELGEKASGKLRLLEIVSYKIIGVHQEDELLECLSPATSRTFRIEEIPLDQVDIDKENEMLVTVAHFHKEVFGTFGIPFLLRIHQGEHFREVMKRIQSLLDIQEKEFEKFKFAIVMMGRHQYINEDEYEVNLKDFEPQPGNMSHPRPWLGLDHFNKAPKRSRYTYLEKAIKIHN

In the case of `Cc1cc(Cl)cc(-c2ccnc3cc(Cn4c(=O)ccn(C(C)C)c4=O)sc23)c1OC1CN2CCC1C2` [Example 590, 3-[[7-[2-[[(1S,3S,4R)-1-azabicyclo[2.2.1]heptan-3-yl]oxy]-5-chloro-3-methyl-phenyl]thieno[3,2-b]pyridin-2-yl]methyl]-1-isopropyl-pyrimidine-2,4-dione], the IC50 is less than 1000 nM. As to `Cc1cc(Cl)cc(-c2ccnc3cc(Cn4c(=O)ccn(CC(F)(F)F)c4=O)sc23)c1O[C@@H]1CN[C@@H]1C` [Example 591, 3-[[7-[5-chloro-3-methyl-2-[(2R,3R)-2-methylazetidin-3-yl]oxy-phenyl]thieno[3,2-b]pyridin-2-yl]methyl]-1-(2,2,2-trifluoroethyl)pyrimidine-2,4-dione], the IC50 is less than 1000 nM. Take `Cc1cc(Cl)cc(-c2ccnc3cc(Cn4c(=O)ccn(C)c4=O)sc23)c1OC1CNCCC1(C)C` (stereo not drawn) [Example 592, 3-[[7-[5-chloro-2-[(4,4-dimethyl-3-piperidyl)oxy]-3-methyl-phenyl]thieno[3,2-b]pyridin-2-yl]methyl]-1-methyl-pyrimidine-2,4-dione]: the IC50 is less than 1000 nM. For the molecule `Cc1cc(Cl)cc(-c2ccnc3cc(Cn4c(=O)ccn(C)c4=O)sc23)c1O[C@H]1CCN[C@@H](C)C1` [Example 593, 3-[[7-[5-chloro-3-methyl-2-[[(2S,4S)-2-methyl-4-piperidyl]oxy]phenyl]thieno[3,2-b]pyridin-2-yl]methyl]-1-methyl-pyrimidine-2,4-dione], the IC50 is less than 1000 nM. Turning to `Cc1cc(Cl)cc(-c2ccnc3cc(Cn4c(=O)ccn(CC(F)(F)F)c4=O)sc23)c1OC1CN2CCC1CC2` (stereo not drawn) [Example 594, 3-[[7-(5-chloro-3-methyl-2-quinuclidin-3-yloxy-phenyl)thieno[3,2-b]pyridin-2-yl]methyl]-1-(2,2,2-trifluoroethyl)pyrimidine-2,4-dione; 2,2,2-trifluoroacetic acid], the IC50 was less than 1000 nM. Consider `Cc1cc(Cl)cc(-c2ncnc3cc(Cn4c(=O)ccn(CC(F)(F)F)c4=O)sc23)c1O[C@@H]1CNC[C@@H]1C` [Example 595, 3-[[4-[5-chloro-3-methyl-2-[(3S,4S)-4-methylpyrrolidin-3-yl]oxy-phenyl]thieno[3,2-d]pyrimidin-6-yl]methyl]-1-(2,2,2-trifluoroethyl)pyrimidine-2,4-dione], for which the 50% inhibitory concentration (IC50) was less than 1000 nM.

Consider `Cc1cc(Cl)cc(-c2ccnc3cc(Cn4c(=O)ccn(CC(F)(F)F)c4=O)sc23)c1O[C@H]1CC[C@H](N)C1` [Example 596, 3-[[7-[2-[(1S,3S)-3-aminocyclopentoxy]-5-chloro-3-methyl-phenyl]thieno[3,2-b]pyridin-2-yl]methyl]-1-(2,2,2-trifluoroethyl)pyrimidine-2,4-dione; 2,2,2-trifluoroacetic acid], for which the IC50 is less than 1000 nM. On to `Cc1cc(Cl)cc(-c2ccnc3cc(Cn4c(=O)ccn(CC(F)(F)F)c4=O)sc23)c1O[C@H]1CC[C@](C)(N)C1` [Example 597, 3-[[7-[2-[(1S,3S)-3-amino-3-methyl-cyclopentoxy]-5-chloro-3-methyl-phenyl]thieno[3,2-b]pyridin-2-yl]methyl]-1-(2,2,2-trifluoroethyl)pyrimidine-2,4-dione; 2,2,2-trifluoroacetic acid], for which the IC50 is less than 1000 nM. Under `Cc1cc(Cl)cc(-c2ccnc3cc(Cn4c(=O)ccn(CC(F)(F)F)c4=O)sc23)c1O[C@H]1CC[C@H](C)NC1` [Example 598, 3-[[7-[5-chloro-3-methyl-2-[[(3S,6S)-6-methyl-3-piperidyl]oxy]phenyl]thieno[3,2-b]pyridin-2-yl]methyl]-1-(2,2,2-trifluoroethyl)pyrimidine-2,4-dione; 2,2,2-trifluoroacetic acid] stands less than 1000 nM; under `Cc1cc(Cl)cc(-c2ccnc3cc(Cn4c(=O)ccn(C)c4=O)sc23)c1O[C@@H]1CN[C@@H](C(=O)O)C1` [Example 599, (2R,4S)-4-[4-chloro-2-methyl-6-[2-[(3-methyl-2,6-dioxo-pyrimidin-1-yl)methyl]thieno[3,2-b]pyridin-7-yl]phenoxy]pyrrolidine-2-carboxylic acid], less than 1000 nM. Regarding `Cc1cc(Cl)cc(-c2ccnc3cc(Cn4c(=O)ccn(C)c4=O)sc23)c1O[C@H]1CN[C@H](C(=O)O)C1` [Example 600, (2S,4R)-4-[4-chloro-2-methyl-6-[2-[(3-methyl-2,6-dioxo-pyrimidin-1-yl)methyl]thieno[3,2-b]pyridin-7-yl]phenoxy]pyrrolidine-2-carboxylic acid], the IC50 was in the range of 1000 to 10000 nM. Take `Cc1cc(Cl)cc(-c2ccnc3cc(Cn4c(=O)ccn(C)c4=O)sc23)c1O[C@H]1CN[C@@H](C(=O)O)C1` [Example 601, (2R,4R)-4-[4-chloro-2-methyl-6-[2-[(3-methyl-2,6-dioxo-pyrimidin-1-yl)methyl]thieno[3,2-b]pyridin-7-yl]phenoxy]pyrrolidine-2-carboxylic acid]: the 50% inhibitory concentration (IC50) was 1000 to 10000 nM. For `Cc1cc(Cl)cc(-c2ccnc3cc(Cn4c(=O)ccn(C)c4=O)sc23)c1O[C@@H]1CCN[C@H]1C(=O)O` [Example 602, (2R,3R)-3-[4-chloro-2-methyl-6-[2-[(3-methyl-2,6-dioxo-pyrimidin-1-yl)methyl]thieno[3,2-b]pyridin-7-yl]phenoxy]pyrrolidine-2-carboxylic acid], the IC50 is less than 1000 nM. As for `Cc1cc(Cl)cc(-c2ncnc3cc(Cn4c(=O)ccn(CC(F)(F)F)c4=O)sc23)c1O[C@@H]1CC[C@@H](N)C1` [Example 603, 3-[[4-[2-[(1R,3R)-3-aminocyclopentoxy]-5-chloro-3-methyl-phenyl]thieno[3,2-d]pyrimidin-6-yl]methyl]-1-(2,2,2-trifluoroethyl)pyrimidine-2,4-dione], the IC50 is less than 1000 nM.

For the molecule `CCO[C@H]1CNC[C@H]1Oc1c(C)cc(Cl)cc1-c1ccnc2cc(Cn3c(=O)ccn(CC(F)(F)F)c3=O)sc12` [Example 604, 3-[[7-[5-chloro-2-[(3R,4S)-4-ethoxypyrrolidin-3-yl]oxy-3-methyl-phenyl]thieno[3,2-b]pyridin-2-yl]methyl]-1-(2,2,2-trifluoroethyl)pyrimidine-2,4-dione], the IC50 is less than 1000 nM. Take `Cc1cc(Cl)cc(-c2ccnc3cc(Cn4c(=O)ccn(CC(F)(F)F)c4=O)sc23)c1O[C@@H]1CN(C2CCOC2)C[C@@H]1C` (stereo partly drawn) [Example 605, 3-[[7-[5-chloro-3-methyl-2-[(3S,4S)-4-methyl-1-tetrahydrofuran-3-yl-pyrrolidin-3-yl]oxy-phenyl]thieno[3,2-b]pyridin-2-yl]methyl]-1-(2,2,2-trifluoroethyl)pyrimidine-2,4-dione]: the IC50 is less than 1000 nM.

`Cc1cc(Cl)cc(-c2ccnc3cc(Cn4c(=O)ccn(CC(F)(F)F)c4=O)sc23)c1O[C@@H]1CN(C2COC2)C[C@@H]1C` [Example 606, 3-[[7-[5-chloro-3-methyl-2-[(3S,4S)-4-methyl-1-(oxetan-3-yl)pyrrolidin-3-yl]oxy-phenyl]thieno[3,2-b]pyridin-2-yl]methyl]-1-(2,2,2-trifluoroethyl)pyrimidine-2,4-dione]: the IC50 was less than 1000 nM. `CC(=O)N1CC[C@@H](Oc2c(C)cc(Cl)cc2-c2ccnc3cc(Cn4c(=O)ccn(CC(F)(F)F)c4=O)sc23)[C@@H](C)C1` [Example 607, 3-[[7-[2-[[(3S,4R)-1-acetyl-3-methyl-4-piperidyl]oxy]-5-chloro-3-methyl-phenyl]thineo[3,2-b]pyridin-2-yl]methyl]-1-(2,2,2-trifluoroethyl)pyrimidine-2,4-dione]: the IC50 was less than 1000 nM. Under `Cc1cc(Cl)cc(-c2ccnc3cc(Cn4c(=O)ccn(CC(F)(F)F)c4=O)sc23)c1O[C@@H]1CCN(C2CCOC2)C[C@H]1C` (stereo partly drawn) [Example 608, 3-[[7-[5-chloro-3-methyl-2-[[(3R,4R)-3-methyl-1-tetrahydrofuran-3-yl-4-piperidyl]oxy]phenyl]thieno[3,2-b]pyridin-2-yl]methyl]-1-(2,2,2-trifluoroethyl)pyrimidine-2,4-dione] stands less than 1000 nM; under `Cc1cc(Cl)cc(-c2ccnc3cc(Cn4c(=O)ccn(CC(F)(F)F)c4=O)sc23)c1O[C@@H]1CCN(C(=O)C(F)(F)F)C[C@@H]1C` [Example 609, 3-[[7-[5-chloro-3-methyl-2-[[(3S,4R)-3-methyl-1-(2,2,2-trifluoroacetyl)-4-piperidyl]oxy]phenyl]thieno[3,2-b]pyridin-2-yl]methyl]-1-(2,2,2-trifluoroethyl)pyrimidine-2,4-dione], less than 1000 nM; under `CC[C@H]1C[C@@H](Oc2c(C)cc(Cl)cc2-c2ccnc3cc(Cn4c(=O)ccn(C)c4=O)sc23)CCN1` [Example 610, 3-[[7-[5-chloro-2-[[(2S,4S)-2-ethyl-4-piperidyl]oxy]-3-methyl-phenyl]thieno[3,2-b]pyridin-2-yl]methyl]-1-methylpyrimidine-2,4-dione], less than 1000 nM. `CC[C@@H]1C[C@H](Oc2c(C)cc(Cl)cc2-c2ccnc3cc(Cn4c(=O)ccn(C)c4=O)sc23)CCN1` [Example 611, 3-[[7-[5-chloro-2-[[(2R,4R)-2-ethyl-4-piperidyl]oxy]-3-methyl-phenyl]thieno[3,2-b]pyridin-2-yl]methyl]-1-methyl-pyrimidine-2,4-dione]: the IC50 is less than 1000 nM.

In the case of `Cc1cc(Cl)cc(-c2ccnc3cc(Cn4c(=O)ccn(CC(F)(F)F)c4=O)sc23)c1O[C@H]1CC[C@](C)(N2CCOCC2)C1` [Example 612, 3-[[7-[5-chloro-3-methyl-2-[(1S,3S)-3-methyl-3-morpholino-cyclopentoxy]phenyl]thieno[3,2-b]pyridin-2-yl]methyl]-1-(2,2,2-trifluoroethyl)pyrimidine-2,4-dione; 2,2,2-trifluoroacetic acid], the IC50 was less than 1000 nM. Consider `Cc1cc(Cl)cc(-c2ccnc3cc(Cn4c(=O)ccn(CC(F)(F)F)c4=O)sc23)c1OC1CC(C)(N2CCOCC2)C1` (stereo not drawn) [Example 613, 3-[[7-[5-chloro-3-methyl-2-(3-methyl-3-morpholino-cyclobutoxy)phenyl]thieno[3,2-b]pyridin-2-yl]methyl]-1-(2,2,2-trifluoroethyl)pyrimidine-2,4-dione; 2,2,2-trifluoroacetic acid], for which the IC50 was less than 1000 nM.
